Measured values as given in patent publication US20260166122A1, “USE OF MICROPEPTIDE MIAC” (NANJING ANJI BIOTECHNOLOGY CO., LTD, priority 2023, published 2026).
Like-named read-outs stand apart in the source and are kept apart here. Marks after values point to notes of the source that are not given here. Ends that are not written are not given here.

How the values were obtained:
Format in all cases: cell-based
Conditions in all cases: 72 h
[1] = test system: human diffuse large B-cell lymphoma cells WSU-DLCL2
Method: (§1) Human pancreatic cancer, hepatocellular carcinoma, colorectal cancer, ovarian cancer, cervical cancer, bladder cancer, melanoma, glioblastoma, neuroblastoma, glioma, osteosarcoma, myeloma, lymphoma, hematologic malignancies, and cholangiocarcinoma cells were cultured in an incubator at 37° C. with 5% CO2 until the density reached 90%, then digested and collected with trypsin, resuspended in a culture medium, and counted under a microscope; the cell concentration was adjusted to about 1.0×10^5 cells/mL; and the cell suspension was inoculated into a 96-well plate, with 100 μL per well, and incubated overnight in an incubator at 37° C. with 5% CO2. After the cells were completely attached to the wall, 100 μL of micropeptides MIAC with concentrations of 50 μM, 100 μM and 200 μM were added to form an administration group; and a culture medium without any medicament was used as a negative control group. After continuing incubation for 72 h, 100 μL of CCK8 was added to each well of the 96-well plate for dissolving. The absorbance OD was measured at a detection wavelength of 450 nm with a microplate reader, and the proliferation inhibition (PI) was calculated using the formula of PI (%)=1-administration group/negative control group. The experiment was repeated 3 times independently, the results were expressed as Mean±SD, and a statistical T test was performed, where *P<0.05 indicated a significant difference and **P<0.01 indicated an extremely significant difference.

[2] = test system: human pancreatic cancer cells Aspc-1
Method: as §1

[3] = test system: human acute non-T non-B lymphocytic leukemia cells Reh
Method: as §1

[4] = test system: human malignant melanoma cells A375
Method: as §1

[5] = test system: human myeloma cells ARP-1
Method: as §1

[6] = test system: human myeloma cells NCI-H929
Method: as §1

[7] = test system: human neuroblastoma cells SH-SY5Y
Method: as §1

[8] = test system: human acute promyelocytic leukemia cells NB4
Method: as §1

[9] = test system: human ovarian cancer cells A2780
Method: as §1

[10] = test system: human ovarian cancer cells SKOV3
Method: as §1

[11] = test system: human pancreatic cancer cells MIP-PaCa-2
Method: as §1

[12] = test system: human hepatocellular carcinoma cells QGY-7701
Method: as §1

[13] = test system: human chronic myeloid leukemia cells K562
Method: as §1

[14] = test system: human hepatocellular carcinoma cells HCCLM3
Method: as §1

[15] = test system: human osteosarcoma cells U-2OS
Method: as §1

[16] = test system: human malignant melanoma cells M14
Method: as §1

[17] = test system: human myeloid leukemia cells HL60
Method: as §1

[18] = test system: human osteogenic sarcoma cells Saos-2
Method: as §1

[19] = test system: human T-cell acute lymphoblastic leukemia cells JurKat
Method: as §1

[20] = test system: human non-small cell lung cancer cells NCI-H1650
[21] = test system: human esophageal carcinoma cells Eca-109
[22] = test system: human gastric carcinoma cells BGC-803
[23] = test system: human gastric carcinoma cells BGC-823

Sequence: MERAGVPGFSPRRSSVEAKMQSTSCSVRKSSTVTAWPAVVLLLSWGQRRGG [MIAC, micropeptide inhibiting actin cytoskeleton]
- OD ([1]; WSU-DLCL2, 50 μM): 0.908 ± 0.061
- OD ([1]; WSU-DLCL2, 100 μM): 0.684 ± 0.039**
- OD ([1]; WSU-DLCL2, 200 μM): 0.264 ± 0.056**
- OD ([2]; Aspc-1, 50 μM): 0.939 ± 0.015
- OD ([2]; Aspc-1, 100 μM): 0.711 ± 0.047**
- OD ([2]; Aspc-1, 200 μM): 0.509 ± 0.019**
- OD ([3]; 50 μM): 0.964 ± 0.037
- OD ([3]; 100 μM): 0.687 ± 0.019**
- OD ([3]; 200 μM): 0.421 ± 0.029**
- OD ([4]; A375, 50 μM): 1.310 ± 0.069**
- OD ([4]; A375, 100 μM): 1.194 ± 0.043**
- OD ([4]; A375, 200 μM): 0.911 ± 0.071**
- OD ([5]; ARP-1, 50 μM): 0.985 ± 0.008
- OD ([5]; ARP-1, 100 μM): 0.692 ± 0.047**
- OD ([5]; ARP-1, 200 μM): 0.433 ± 0.013**
- OD ([6]; NCI-H929, 50 μM): 0.860 ± 0.012**
- OD ([6]; NCI-H929, 100 μM): 0.427 ± 0.016**
- OD ([6]; NCI-H929, 200 μM): 0.263 ± 0.026**
- OD ([7]; 50 μM): 1.033 ± 0.022
- OD ([7]; 100 μM): 0.822 ± 0.108**
- OD ([7]; 200 μM): 0.665 ± 0.011**
- OD ([8]; NB4, 50 μM): 1.177 ± 0.042**
- OD ([8]; NB4, 100 μM): 0.826 ± 0.066**
- OD ([8]; NB4, 200 μM): 0.624 ± 0.052**
- OD ([9]; A2780, 50 μM): 0.985 ± 0.046**
- OD ([9]; A2780, 100 μM): 0.791 ± 0.067**
- OD ([9]; A2780, 200 μM): 0.441 ± 0.018**
- OD ([10]; SKOV3, 50 μM): 1.244 ± 0.282**
- OD ([10]; SKOV3, 100 μM): 0.843 ± 0.049**
- OD ([10]; SKOV3, 200 μM): 0.727 ± 0.038**
- OD ([11]; MIP-PaCa-2, 50 μM): 0.898 ± 0.035
- OD ([11]; MIP-PaCa-2, 100 μM): 0.866 ± 0.035**
- OD ([11]; MIP-PaCa-2, 200 μM): 0.571 ± 0.038**
- OD ([12]; QGY-7701, 50 μM): 1.185 ± 0.018**
- OD ([12]; QGY-7701, 100 μM): 0.785 ± 0.030**
- OD ([12]; QGY-7701, 200 μM): 0.520 ± 0.019**
- OD ([13]; K562, 50 μM): 1.004 ± 0.012**
- OD ([13]; K562, 100 μM): 0.544 ± 0.062**
- OD ([13]; K562, 200 μM): 0.338 ± 0.025**
- OD ([14]; HCCLM3, 50 μM): 1.420 ± 0.054
- OD ([14]; HCCLM3, 100 μM): 0.981 ± 0.019**
- OD ([14]; HCCLM3, 200 μM): 0.706 ± 0.041**
- OD ([15]; 50 μM): 0.887 ± 0.024
- OD ([15]; 100 μM): 0.596 ± 0.061**
- OD ([15]; 200 μM): 0.350 ± 0.013**
- OD ([16]; M14, 50 μM): 1.585 ± 0.030
- OD ([16]; M14, 100 μM): 1.046 ± 0.060**
- OD ([16]; M14, 200 μM): 0.639 ± 0.046**
- OD ([17]; HL60, 50 μM): 1.378 ± 0.029**
- OD ([17]; HL60, 100 μM): 0.725 ± 0.027**
- OD ([17]; HL60, 200 μM): 0.549 ± 0.023**
- OD ([18]; Saos-2, 50 μM): 1.198 ± 0.067
- OD ([18]; Saos-2, 100 μM): 0.946 ± 0.016**
- OD ([18]; Saos-2, 200 μM): 0.627 ± 0.052**
- OD ([19]; 50 μM): 0.984 ± 0.032
- OD ([19]; 100 μM): 0.730 ± 0.032**
- OD ([19]; 200 μM): 0.559 ± 0.038**
- OD ([20]; NCI-H1650, 50 μM): 1.127 ± 0.022
- OD ([20]; NCI-H1650, 100 μM): 0.955 ± 0.031
- OD ([20]; NCI-H1650, 200 μM): 0.779 ± 0.057
- OD ([21]; Eca-109, 50 μM): 1.072 ± 0.037
- OD ([21]; Eca-109, 100 μM): 0.656 ± 0.045
- OD ([21]; Eca-109, 200 μM): 0.394 ± 0.039
- OD ([22]; BGC-803, 50 μM): 1.379 ± 0.025
- OD ([22]; BGC-803, 100 μM): 0.960 ± 0.059
- OD ([22]; BGC-803, 200 μM): 0.715 ± 0.015
- OD ([23]; BGC-823, 50 μM): 0.950 ± 0.045
- OD ([23]; BGC-823, 100 μM): 0.556 ± 0.029
- OD ([23]; BGC-823, 200 μM): 0.327 ± 0.025
